In patent publication US20240425464A1, “Substituted Monohydrazides as Potent Antifungal Agents” (University of Kentucky Research Foundation, priority 2023, published 2024):
Converted amounts (≈) assume the structure as drawn. Like-named read-outs stand apart in the source and are kept apart here.

Tests used:
Experiment in all cases: MIC determination by in vitro antifungal assay
Type in all cases: cell-based, Candida auris
Conditions in all cases: Candidozyma auris, read-out: MIC
C. auris AR Bank #383 = tested on: C. auris AR Bank #383
Protocol: (§1) The antifungal agent amphotericin B (AmB) was purchased from VWR (Radnor PA, USA). AmB was dissolved in DMSO at a final concentration of 5 mg/mL and was stored at −20° C., protected from light. Candida albicans American Type Culture Collection (ATCC) 10231 (strain A), C. albicans ATCC 64124 (B), and C. albicans ATCC MYA-2876 (C) were obtained from Utah State University. C. albicans ATCC 90819 (D), C. albicans ATCC MYA-2310 (E), C. albicans ATCC MYA-1237 (F), C. albicans ATCC MYA-1003 (G), Candida glabrata ATCC 2001 (H), Candida krusei ATCC 6258 (I), Candida parapsilosis ATCC 22019 (J), Cryptococcus neoformans ATCC MYA-895 (M), Aspergillus terreus ATCC MYA-3633 (N), and Aspergillus flavus ATCC MYA-3631 (0) were obtained from the American Type Culture Collection (ATCC; Manassas, VA, USA). Aspergillus nidulans ATCC 38163 (P) was obtained from University of Kentucky. Clinically derived Aspergillus fumigatus NRRL 163 (Q), A. fumigatus NRRL 5109 (R), and A. fumigatus NRRL 6113 (S) were obtained from Northern Regional Research Laboratory (NRRL). Candida auris 384 (K), C. auris 390 (L), and fungal strains 381-400 (including 10 C. auris (AR Bank #381-390), 3 Candida duobushaemulonii (AR Bank #391, AR Bank #392, and AR Bank #394), 2 Candida haemulonii (AR Bank #393 and AR Bank #395), 1 Kodameae ohmeri (AR Bank #396), 1 C. krusei (AR Bank #397), 1 Candida lusitaniae (AR Bank #398), and 2 Saccharomyces cerevisiae strains (AR Bank #399 and AR Bank #400)) were part of a larger fungal library from the AR Bank maintained by the Centers for Disease Control and Prevention (CDC; Atlanta, GA, USA). Filamentous fungi and yeasts were cultivated at 35° C. in RPMI 1640 medium (with L-glutamine, without sodium bicarbonate, Sigma-Aldrich, St. Louis, MO) buffered to a pH of 7.0 with 0.165 M morpholinepropanesulfonic acid (MOPS) buffer (Sigma-Aldrich). For cytotoxicity assays, HepG2 and the mouse macrophage cell line J774A.1 were obtained from University of Kentucky. The human embryonic kidney cell line, HEK-293, was bought from the ATCC. Mammalian cells were grown in Dulbecco's Modified Eagle's Medium (DMEM) (from VWR) with 10% fetal bovine serum (FBS) (from VWR) and 1% Pen/Strep (from ATCC). Cell lines were cultured at 37° C. with 5% CO2 and passaged by trypsinization with 0.05% trypsin: 0.53 mM EDTA (from Sigma-Aldrich).
(§2) From the actively growing yeast culture, 100 µL were then transferred to 900 μL of RPMI 1640 medium and re-adjusted to achieve OD600 of 0.12 (˜1×10^6 CFU/mL). The cell suspension was further diluted to achieve 1:100 in RPMI 1640 medium.

C. auris AR Bank #386 = tested on: C. auris AR Bank #386
Protocol: as §1, §2

C. auris AR Bank #388 = tested on: C. auris AR Bank #388
Protocol: as §1, §2

C. auris AR Bank #387 = tested on: C. auris AR Bank #387
Protocol: as §1, §2

C. auris AR Bank #381 = tested on: C. auris AR Bank #381
Protocol: as §1, §2

C. auris AR Bank #389 = tested on: C. auris AR Bank #389
Protocol: as §1, §2

C. auris AR Bank #382 = tested on: C. auris AR Bank #382
Protocol: as §1, §2

C. auris AR Bank #385 = tested on: C. auris AR Bank #385
Protocol: as §1, §2

[1] = C. auris AR Bank # 383 (Table 2B)
[2] = C. auris AR Bank # 386 (Table 2B)
[3] = C. auris AR Bank # 388 (Table 2B)
[4] = C. auris AR Bank # 387 (Table 2B)
[5] = C. auris AR Bank # 381 (Table 2B)
[6] = C. auris AR Bank # 389 (Table 2B)
[7] = C. auris AR Bank # 382 (Table 2B)
[8] = C. auris AR Bank # 385 (Table 2B)

Row | Compound | MIC (C. auris AR Bank #383; [1]) [mg/L] | MIC (C. auris AR Bank #386; [2]) [mg/L] | MIC (C. auris AR Bank #388; [3]) [mg/L] | MIC (C. auris AR Bank #387; [4]) [mg/L] | MIC (C. auris AR Bank #381; [5]) [mg/L] | MIC (C. auris AR Bank #389; [6]) [mg/L] | MIC (C. auris AR Bank #382; [7]) [mg/L] | MIC (C. auris AR Bank #385; [8]) [mg/L] | MIC (C. auris AR Bank #383; C. auris AR Bank #383) [mg/L] | MIC (C. auris AR Bank #386; C. auris AR Bank #386) [mg/L] | MIC (C. auris AR Bank #388; C. auris AR Bank #388) [mg/L] | MIC (C. auris AR Bank #387; C. auris AR Bank #387) [mg/L] | MIC (C. auris AR Bank #381; C. auris AR Bank #381) [mg/L] | MIC (C. auris AR Bank #389; C. auris AR Bank #389) [mg/L] | MIC (C. auris AR Bank #382; C. auris AR Bank #382) [mg/L] | MIC (C. auris AR Bank #385; C. auris AR Bank #385) [mg/L]
1 | O=C(NNc1ccc(F)cc1)c1ccc(Br)cn1 [Compound 4d] | 7.8 (≈ 25.2 µM) | 3.9 (≈ 12.6 µM) | 1.95 (≈ 6.29 µM) | 3.9 (≈ 12.6 µM) | 1.95 (≈ 6.29 µM) | 3.9 (≈ 12.6 µM) | 1.95 (≈ 6.29 µM) | 1.95 (≈ 6.29 µM) | – | – | – | – | – | – | – | –
2 | COc1ccc(NNC(=O)c2ncc(F)cc2F)cc1 [Compound 7f] | 0.98 (≈ 3.51 µM) | 0.98 (≈ 3.51 µM) | 0.98 (≈ 3.51 µM) | 0.98 (≈ 3.51 µM) | 0.98 (≈ 3.51 µM) | 0.98 (≈ 3.51 µM) | 0.98 (≈ 3.51 µM) | 0.49 (≈ 1.75 µM) | – | – | – | – | – | – | – | –
3 | O=C(NNc1ccc(F)cc1)c1nc(F)ccc1F [Compound 8d] | 0.98 (≈ 3.67 µM) | 0.98 (≈ 3.67 µM) | 0.49 (≈ 1.83 µM) | 0.49 (≈ 1.83 µM) | 0.98 (≈ 3.67 µM) | 0.98 (≈ 3.67 µM) | 0.98 (≈ 3.67 µM) | 0.24 (≈ 0.898 µM) | – | – | – | – | – | – | – | –
4 | O=C(NNc1cc(F)ccc1F)c1ccccn1 [Compound 2h] | – | – | – | – | – | – | – | – | 0.49 (≈ 1.97 µM) | 0.12 (≈ 0.482 µM) | 0.49 (≈ 1.97 µM) | 0.49 (≈ 1.97 µM) | 1.95 (≈ 7.82 µM) | 0.49 (≈ 1.97 µM) | 0.24 (≈ 0.963 µM) | 0.49 (≈ 1.97 µM)
5 | O=C(NNc1ccc(F)cc1)c1ccccn1 [Compound 2d] | – | – | – | – | – | – | – | – | 1.95 (≈ 8.43 µM) | 0.49 (≈ 2.12 µM) | 0.98 (≈ 4.24 µM) | 0.98 (≈ 4.24 µM) | 0.98 (≈ 4.24 µM) | 0.49 (≈ 2.12 µM) | 1.95 (≈ 8.43 µM) | 0.98 (≈ 4.24 µM)
6 | O=C(NNc1cccc(Cl)c1)c1ccc(F)cc1F [Compound 1b] | 15.6 (≈ 55.2 µM) | 7.8 (≈ 27.6 µM) | 3.9 (≈ 13.8 µM) | 7.8 (≈ 27.6 µM) | 3.9 (≈ 13.8 µM) | 3.9 (≈ 13.8 µM) | 3.9 (≈ 13.8 µM) | 3.9 (≈ 13.8 µM) | – | – | – | – | – | – | – | –
7 | O=C(NNc1cc(Cl)cc(Cl)c1)c1ccccn1 [Compound 2j] | – | – | – | – | – | – | – | – | 1.95 (≈ 6.91 µM) | 1.98 (≈ 7.02 µM) | 3.9 (≈ 13.8 µM) | 0.98 (≈ 3.47 µM) | 3.9 (≈ 13.8 µM) | 1.95 (≈ 6.91 µM) | 0.98 (≈ 3.47 µM) | 1.95 (≈ 6.91 µM)
8 | O=C(NNc1ccc(F)cc1)c1cccc(F)n1 [Compound 5d] | 1.95 (≈ 7.82 µM) | 0.98 (≈ 3.93 µM) | 0.49 (≈ 1.97 µM) | 0.49 (≈ 1.97 µM) | 0.98 (≈ 3.93 µM) | 0.98 (≈ 3.93 µM) | 0.98 (≈ 3.93 µM) | 0.49 (≈ 1.97 µM) | – | – | – | – | – | – | – | –
